The values below come from ChEMBL document CHEMBL1127255, “Synthesis of the benzofuran analogue of ILV, a new protein kinase C (PKC) activator” (Bioorg Med Chem Lett, 1994).

This experiment concerns the target Protein kinase C alpha type (Homo sapiens, UniProt P17252). In words: Displacement of [3H]PDBu from PKC alpha expressed in Sf9 cells.

`CC(C)[C@H]1C(=O)N[C@H](CO)Cc2c[nH]c3cccc(c23)N1C` [INDOLACTUM] had a Ki of 11 nM.
The same measure for `CC(C)[C@H]1C(=O)N[C@H](CO)Cc2coc3cccc(c23)N1C`: 17.3 nM.
